In ChEMBL document CHEMBL1201862, “PubChem BioAssay data set” (2004):
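Assay format: 96-well plates, 48-hour exposure. GI50 = concentration required for 50% inhibition of growth.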 Activity calls are given as the source filed them. Rule as the data show it: active = GI50 up to about 1.1 µM and inactive = higher.

Columns and labels:
Experiment in all cases: DTP human tumour cell line panel, 48 h
A549 = test system: A549
COLO 205 = test system: COLO 205
DU-145 = test system: DU-145
EKVX = test system: EKVX
HCT-116 = test system: HCT-116
HCT-15 = test system: HCT-15
HL-60 = test system: HL-60
HT-29 = test system: HT-29
M14 = test system: M14
MDA-N = test system: MDA-N
MOLT-4 = test system: MOLT-4
NCI-H460 = test system: NCI-H460
PC-3 = test system: PC-3
RPMI-8226 = test system: RPMI-8226
SF-539 = test system: SF-539
SK-MEL-28 = test system: SK-MEL-28
SNB-19 = test system: SNB-19
SNB-75 = test system: SNB-75
UACC-257 = test system: UACC-257
A498 = test system: A498

| SMILES | GI50 (A549) | GI50 (COLO 205) | GI50 (DU-145) | GI50 (EKVX) | GI50 (HCT-116) | GI50 (HCT-15) [µM] | GI50 (HL-60) | GI50 (HT-29) | GI50 (M14) | GI50 (MDA-N) | GI50 (MOLT-4) | GI50 (NCI-H460) | GI50 (PC-3) | GI50 (RPMI-8226) | GI50 (SF-539) | GI50 (SK-MEL-28) | GI50 (SNB-19) | GI50 (SNB-75) | GI50 (UACC-257) | GI50 (A498) |
| --- | --- | --- | --- | --- | --- | --- | --- | --- | --- | --- | --- | --- | --- | --- | --- | --- | --- | --- | --- | --- |
| COc1ccc(C(=O)N2CCN(c3ccc4[nH]c(=O)oc4c3)CC2)cc1 | > 100 µM (inactive) | > 100 µM (inactive) | > 100 µM (inactive) | 78.7 µM (inactive) | > 100 µM (inactive) | > 100 | 39.4 µM (inactive) | > 100 µM (inactive) | > 100 µM (inactive) | > 100 µM (inactive) | > 100 µM (inactive) | > 100 µM (inactive) | > 100 µM (inactive) | > 100 µM (inactive) | > 100 µM (inactive) | > 100 µM (inactive) | > 100 µM (inactive) | 62.4 µM (inactive) | > 100 µM (inactive) | – |
| COc1ccc(/C=C2/C(=O)N(/C=C3\C(=O)Oc4ccccc4C3=O)/C(=N/C(C)=O)N2C)cc1OC | > 100 µM (inactive) | > 100 µM (inactive) | > 100 µM (inactive) | > 100 µM (inactive) | > 100 µM (inactive) | > 100 | > 100 µM (inactive) | > 100 µM (inactive) | > 100 µM (inactive) | > 100 µM (inactive) | > 100 µM (inactive) | > 100 µM (inactive) | > 100 µM (inactive) | > 100 µM (inactive) | > 100 µM (inactive) | > 100 µM (inactive) | – | 45.9 µM (inactive) | > 100 µM (inactive) | – |
| CC(C)(C)NCc1cc(C(C)(C)C)cc(-c2ccc(Cl)cc2)c1O | 16 µM (inactive) | 10.7 µM (inactive) | 11.7 µM (inactive) | 12.7 µM (inactive) | 13.2 µM (inactive) | 11 | 5.33 µM (inactive) | 17.9 µM (inactive) | 15 µM (inactive) | 16.1 µM (inactive) | – | 12.5 µM (inactive) | – | 9.53 µM (inactive) | 11.9 µM (inactive) | 13.8 µM (inactive) | 15.7 µM (inactive) | 10.7 µM (inactive) | 28.2 µM (inactive) | – |
| c1cc2ccc3cc4ncccc4c4ccc(c1)c2c34 | 9.31 µM (inactive) | 9.82 µM (inactive) | 57.4 µM (inactive) | 22.5 µM (inactive) | 12 µM (inactive) | 7.73 | 33.2 µM (inactive) | 23.2 µM (inactive) | 71.6 µM (inactive) | 41.9 µM (inactive) | 8.59 µM (inactive) | 5.05 µM (inactive) | 33 µM (inactive) | 10.1 µM (inactive) | 20.9 µM (inactive) | 43.1 µM (inactive) | 90.8 µM (inactive) | 19.8 µM (inactive) | 56.8 µM (inactive) | – |
| O=c1n(CCO)nc2n1CCCN2 | > 100 µM (inactive) | > 100 µM (inactive) | > 100 µM (inactive) | > 100 µM (inactive) | > 100 µM (inactive) | > 100 | > 100 µM (inactive) | > 100 µM (inactive) | > 100 µM (inactive) | > 100 µM (inactive) | > 100 µM (inactive) | > 100 µM (inactive) | > 100 µM (inactive) | > 100 µM (inactive) | > 100 µM (inactive) | > 100 µM (inactive) | > 100 µM (inactive) | > 100 µM (inactive) | – | – |
| Cc1ccc(S(=O)(=O)N2C3C=CC(C3)[C@@H]2C(Cl)(Cl)Cl)cc1 (some centres not stated) | 18.7 µM (inactive) | 20.6 µM (inactive) | 10.5 µM (inactive) | 5.22 µM (inactive) | 10.8 µM (inactive) | 19.1 | 1.66 µM (inactive) | 11.8 µM (inactive) | 14.4 µM (inactive) | 35 µM (inactive) | 19.3 µM (inactive) | 6.75 µM (inactive) | 5.06 µM (inactive) | 3.09 µM (inactive) | 12.3 µM (inactive) | 18.2 µM (inactive) | 17.9 µM (inactive) | 18.2 µM (inactive) | 20.1 µM (inactive) | – |
| O=C(CC(=O)CC(O)(C(F)(F)F)C(F)(F)F)CC(O)(C(F)(F)F)C(F)(F)F | > 10 µM (inactive) | > 10 µM (inactive) | > 10 µM (inactive) | > 10 µM (inactive) | > 10 µM (inactive) | > 10 | > 10 µM (inactive) | 8.49 µM (inactive) | > 10 µM (inactive) | > 10 µM (inactive) | > 10 µM (inactive) | > 10 µM (inactive) | – | > 10 µM (inactive) | > 10 µM (inactive) | > 10 µM (inactive) | > 10 µM (inactive) | > 10 µM (inactive) | > 10 µM (inactive) | > 10 µM (inactive) |
| COC(=O)c1cc(/C=C\c2cc(OC)ccc2OC)ccc1OC | 32.1 µM (inactive) | 21.2 µM (inactive) | 26.9 µM (inactive) | 26.1 µM (inactive) | 32.4 µM (inactive) | 33.2 | – | 25.6 µM (inactive) | 26.1 µM (inactive) | 17.7 µM (inactive) | 6.75 µM (inactive) | 51.2 µM (inactive) | 26.1 µM (inactive) | 18.4 µM (inactive) | 38.5 µM (inactive) | 18.4 µM (inactive) | 34 µM (inactive) | – | 30.5 µM (inactive) | 28.7 µM (inactive) |
